Assays:
Experiment in all cases: cells
NCI-H1395 = type: functional, cell-based, Homo sapiens; conditions: Homo sapiens, NCI-H1395;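 also: cell viability assay read-out quantifying reduced proliferation of human NCI-H1395 cells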
Description: SANGER: Inhibition of human NCI-H1395 cell growth in a cell viability assay.

LXF-289 cell line = type: functional, cell-based, Homo sapiens; conditions: Homo sapiens, LXF-289
Description: SANGER: Inhibition of human LXF-289 cell growth in a cell viability assay.

RKO = type: functional, cell-based, Homo sapiens; conditions: Homo sapiens, RKO;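 also: growth inhibition of human RKO cells, read out with a cell viability assay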
Description: SANGER: Inhibition of human RKO cell growth in a cell viability assay.

RPMI-8226 = type: functional, cell-based; conditions: Homo sapiens
Description: SANGER: Inhibition of human RPMI-8226 cell growth in a cell viability assay.

SAS = type: functional, cell-based, Homo sapiens; conditions: Homo sapiens, SAS;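 also: growth inhibition of SAS cells, read out with a cell viability assay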
Description: SANGER: Inhibition of human SAS cell growth in a cell viability assay.

SW1783 = type: functional, cell-based; conditions: Homo sapiens;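 also: cell growth inhibition measured with a viability assay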
Description: SANGER: Inhibition of human SW1783 cell growth in a cell viability assay.

NCI-H1793 = type: functional, cell-based, Homo sapiens; conditions: Homo sapiens, NCI-H1793;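 also: cell growth inhibition, read out by a cell viability assay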
Description: SANGER: Inhibition of human NCI-H1793 cell growth in a cell viability assay.

NCI-H1155 = type: functional, cell-based; conditions: Homo sapiens;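 also: cell growth inhibition measured by a viability assay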
Description: SANGER: Inhibition of human NCI-H1155 cell growth in a cell viability assay.

KYSE-510 = type: functional, cell-based, Homo sapiens; conditions: Homo sapiens, KYSE-510;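 also: cell viability readout used to measure how strongly growth of the cell line is suppressed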
Description: SANGER: Inhibition of human KYSE-510 cell growth in a cell viability assay.

HT-29 = type: functional, cell-based, Homo sapiens; conditions: Homo sapiens, HT-29;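 also: growth inhibition of human HT-29 cells, read out by a cell viability assay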
Description: SANGER: Inhibition of human HT-29 cell growth in a cell viability assay.

HT-144 = type: functional, cell-based, Homo sapiens; conditions: Homo sapiens, HT-144
Description: SANGER: Inhibition of human HT-144 cell growth in a cell viability assay.

CAKI-1 = type: functional, cell-based, Homo sapiens; conditions: Homo sapiens, CAKI-1;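 also: growth inhibition of CAKI-1 cells, measured by a cell viability assay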
Description: SANGER: Inhibition of human CAKI-1 cell growth in a cell viability assay.

SH-4 = type: functional, cell-based, Homo sapiens; conditions: Homo sapiens, SH-4;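 also: growth inhibition of SH-4 cells, read out with a cell viability assay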
Description: SANGER: Inhibition of human SH-4 cell growth in a cell viability assay.

KMOE-2 = type: functional, cell-based; conditions: Homo sapiens;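 also: growth inhibition of human KMOE-2 cells, read out with a cell viability assay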
Description: SANGER: Inhibition of human KMOE-2 cell growth in a cell viability assay.

SW 954 = type: functional, cell-based, Homo sapiens; conditions: Homo sapiens, SW 954;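 also: growth inhibition of SW954 human cancer cells, read out as cell viability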
Description: SANGER: Inhibition of human SW954 cell growth in a cell viability assay.

TK-10 = type: functional, cell-based, Homo sapiens; conditions: Homo sapiens, TK-10;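 also: growth inhibition of TK-10 cells, read out in a cell viability assay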
Description: SANGER: Inhibition of human TK10 cell growth in a cell viability assay.

EOL1 = type: functional, cell-based; conditions: Homo sapiens;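 also: growth inhibition of EoL-1 cells, read out by a cell viability assay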
Description: SANGER: Inhibition of human EoL-1-cell cell growth in a cell viability assay.

T84 = type: functional, cell-based, Homo sapiens; conditions: Homo sapiens, T84;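 also: growth inhibition measured with a cell viability readout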
Description: SANGER: Inhibition of human T84 cell growth in a cell viability assay.

HCC 2998 = type: functional, cell-based, Homo sapiens; conditions: Homo sapiens, HCC 2998;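 also: growth inhibition of human HCC2998 cells, measured with a cell viability read-out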
Description: SANGER: Inhibition of human HCC2998 cell growth in a cell viability assay.

Panc1005 = type: functional, cell-based, Homo sapiens; conditions: Homo sapiens, Panc1005;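 also: growth inhibition of human PANC-10-05 cells, measured by a cell viability assay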
Description: SANGER: Inhibition of human PANC-10-05 cell growth in a cell viability assay.

TE-1 = type: functional, cell-based, Homo sapiens; conditions: Homo sapiens, TE-1;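 also: growth inhibition of the human TE-1 cell line, read out with a cell viability assay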
Description: SANGER: Inhibition of human TE-1 cell growth in a cell viability assay.

HAL-01 = type: functional, cell-based; conditions: Homo sapiens;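 also: growth inhibition of human HAL-01 cells, read out with a cell viability assay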
Description: SANGER: Inhibition of human HAL-01 cell growth in a cell viability assay.

NTERA-2-cl-D1 = type: functional, cell-based, Homo sapiens; conditions: Homo sapiens, NTERA-2-cl-D1;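 also: inhibition of cell growth, measured with a cell viability assay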
Description: SANGER: Inhibition of human NTERA-S-cl-D1 cell growth in a cell viability assay.

SW1088 = type: functional, cell-based, Homo sapiens; conditions: Homo sapiens, SW1088;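 also: growth inhibition of human SW1088 cells, read out by a cell viability assay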
Description: SANGER: Inhibition of human SW1088 cell growth in a cell viability assay.

LB771-HNC = type: functional, cell-based, Homo sapiens; conditions: Homo sapiens, LB771-HNC;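 also: growth inhibition of LB771-HNC human cells, read out with a cell viability assay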
IGR-1 = type: functional, cell-based, Homo sapiens; conditions: Homo sapiens, IGR-1;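 also: growth inhibition of human IGR-1 cells, read out with a cell viability assay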
Description: SANGER: Inhibition of human IGR-1 cell growth in a cell viability assay.

DMS-273 = type: functional, cell-based, Homo sapiens; conditions: Homo sapiens, DMS-273
Description: SANGER: Inhibition of human DMS-273 cell growth in a cell viability assay.

SF-539 = type: functional, cell-based, Homo sapiens; conditions: Homo sapiens, SF-539;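 also: Read-out is a cell viability assay, with IC50 reflecting inhibition of cell growth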
Description: SANGER: Inhibition of human SF539 cell growth in a cell viability assay.

MDA-MB-231 = type: functional, cell-based, Homo sapiens; conditions: Homo sapiens, MDA-MB-231
Description: SANGER: Inhibition of human MDA-MB-231 cell growth in a cell viability assay.

KINGS-1 = type: functional, cell-based, Homo sapiens; conditions: Homo sapiens, KINGS-1;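 also: cell viability assay measuring suppression of KINGS-1 cell growth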
Description: SANGER: Inhibition of human KINGS-1 cell growth in a cell viability assay.

RCM-1 = type: functional, cell-based, Homo sapiens; conditions: Homo sapiens, RCM-1;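 also: growth inhibition of the RCM-1 line, determined with a cell viability readout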
Description: SANGER: Inhibition of human RCM-1 cell growth in a cell viability assay.

SW780 = type: functional, cell-based, Homo sapiens; conditions: Homo sapiens, SW780;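 also: growth inhibition of the cells, read out with a cell viability assay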
MZ1-PC = type: functional, cell-based, Homo sapiens; conditions: Homo sapiens, MZ1-PC;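 also: cell viability assay measuring growth inhibition of human MZ1-PC cells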
Description: SANGER: Inhibition of human MZ1-PC cell growth in a cell viability assay.

MZ7-mel = type: functional, cell-based, Homo sapiens; conditions: Homo sapiens, MZ7-mel;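 also: growth inhibition of human MZ7-mel cells, measured by a cell viability assay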
RPMI-7951 = type: functional, cell-based, Homo sapiens; conditions: Homo sapiens, RPMI-7951
Description: SANGER: Inhibition of human RPMI-7951 cell growth in a cell viability assay.

NCI-H292 = type: functional, cell-based, Homo sapiens; conditions: Homo sapiens, NCI-H292;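 also: growth inhibition of NCI-H292 cells, read out with a cell viability assay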
Description: SANGER: Inhibition of human NCI-H292 cell growth in a cell viability assay.

EFM-19 = type: functional, cell-based, Homo sapiens; conditions: Homo sapiens, EFM-19;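 also: growth inhibition of human EFM-19 cells, measured in a cell viability assay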
Description: SANGER: Inhibition of human EFM-19 cell growth in a cell viability assay.

KOSC-2 = type: functional, cell-based, Homo sapiens; conditions: Homo sapiens, KOSC-2;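 also: growth inhibition of KOSC-2 cells, read out by a cell viability assay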
NCI-N87 = type: functional, cell-based, Homo sapiens; conditions: Homo sapiens, NCI-N87;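 also: growth inhibition of human NCI-N87 cells, read out with a cell viability assay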
Description: SANGER: Inhibition of human NCI-N87 cell growth in a cell viability assay.

TE-8 = type: functional, cell-based, Homo sapiens; conditions: Homo sapiens, TE-8;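 also: growth inhibition of TE-8 cells, measured with a cell viability readout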
Description: SANGER: Inhibition of human TE-8 cell growth in a cell viability assay.

BB65-RCC = type: functional, cell-based, Homo sapiens; conditions: Homo sapiens, BB65-RCC;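 also: growth inhibition of the cell line, measured with a cell viability assay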
Description: SANGER: Inhibition of human BB65-RCC cell growth in a cell viability assay.

FTC-133 = type: functional, cell-based, Homo sapiens; conditions: Homo sapiens, FTC-133
BB30-HNC = type: functional, cell-based, Homo sapiens; conditions: Homo sapiens, BB30-HNC;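 also: growth inhibition of the cultured cell line, read out by a cell viability assay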
Description: SANGER: Inhibition of human BB30-HNC cell growth in a cell viability assay.

ACHN = type: functional, cell-based, Homo sapiens; conditions: Homo sapiens, ACHN;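 also: cell viability read-out used to gauge how strongly growth of human ACHN cells is suppressed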
Description: SANGER: Inhibition of human ACHN cell growth in a cell viability assay.

L-363 = type: functional, cell-based; conditions: Homo sapiens
Description: SANGER: Inhibition of human L-363 cell growth in a cell viability assay.

SK-MEL-1 = type: functional, cell-based; conditions: Homo sapiens;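 also: growth inhibition of human SK-MEL-1 cells, read out by a cell viability assay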
Description: SANGER: Inhibition of human SK-MEL-1 cell growth in a cell viability assay.

SK-MEL-30 = type: functional, cell-based; conditions: Homo sapiens;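 also: growth inhibition of SK-MEL-30 cells, determined with a cell viability assay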
Description: SANGER: Inhibition of human SK-MEL-30 cell growth in a cell viability assay.

8505C = type: functional, cell-based, Homo sapiens; conditions: Homo sapiens, 8505C
Description: SANGER: Inhibition of human 8505C cell growth in a cell viability assay.

U-87 MG = type: functional, cell-based, U-87MG ATCC; conditions: Homo sapiens;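 also: growth inhibition of the cells measured with a viability assay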
Description: SANGER: Inhibition of human U-87-MG cell growth in a cell viability assay.

ATN-1 = type: functional, cell-based; conditions: Homo sapiens;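 also: growth inhibition of human ATN-1 cells, read out with a cell viability assay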
Description: SANGER: Inhibition of human ATN-1 cell growth in a cell viability assay.

DB = type: functional, cell-based; conditions: Homo sapiens
Description: SANGER: Inhibition of human DB cell growth in a cell viability assay.

SMILES: CN(C)C/C=C/C(=O)Nc1cc2c(Nc3ccc(F)c(Cl)c3)ncnc2cc1O[C@H]1CCOC1 [AFATINIB]
- IC50 (NCI-H1395): > 500 nM
- IC50 (LXF-289 cell line): > 500 nM
- IC50 (RKO): > 500 nM
- IC50 (RPMI-8226): > 500 nM
- IC50 (SAS): 484 nM
- IC50 (SW1783): > 500 nM
- IC50 (NCI-H1793): > 500 nM
- IC50 (NCI-H1155): > 500 nM
- IC50 (KYSE-510): > 500 nM
- IC50 (HT-29): > 500 nM
- IC50 (HT-144): > 500 nM
- IC50 (CAKI-1): > 500 nM
- IC50 (SH-4): > 500 nM
- IC50 (KMOE-2): > 500 nM
- IC50 (SW 954): > 500 nM
- IC50 (TK-10): 267 nM
- IC50 (EOL1): 269 nM
- IC50 (T84): > 500 nM
- IC50 (HCC 2998): > 500 nM
- IC50 (Panc1005): > 500 nM
- IC50 (TE-1): > 500 nM
- IC50 (HAL-01): > 500 nM
- IC50 (NTERA-2-cl-D1): > 500 nM
- IC50 (SW1088): > 500 nM
- IC50 (LB771-HNC): > 500 nM
- IC50 (IGR-1): > 500 nM
- IC50 (DMS-273): > 500 nM
- IC50 (SF-539): > 500 nM
- IC50 (MDA-MB-231): > 500 nM
- IC50 (KINGS-1): > 500 nM
- IC50 (RCM-1): > 500 nM
- IC50 (SW780): > 500 nM
- IC50 (MZ1-PC): > 500 nM
- IC50 (MZ7-mel): > 500 nM
- IC50 (RPMI-7951): > 500 nM
- IC50 (NCI-H292): 60.9 nM
- IC50 (EFM-19): > 500 nM
- IC50 (KOSC-2): > 500 nM
- IC50 (NCI-N87): 27.7 nM
- IC50 (TE-8): > 500 nM
- IC50 (BB65-RCC): 346 nM
- IC50 (FTC-133): > 500 nM
- IC50 (BB30-HNC): 166 nM
- IC50 (ACHN): 320 nM
- IC50 (L-363): > 500 nM
- IC50 (SK-MEL-1): > 500 nM
- IC50 (SK-MEL-30): > 500 nM
- IC50 (8505C): > 500 nM
- IC50 (U-87 MG): > 500 nM
- IC50 (ATN-1): > 500 nM
- IC50 (DB): > 500 nM

SMILES: O=C(NOCC1CC1)c1ccc(F)c(F)c1Nc1ccc(I)cc1Cl [CI-1040]
- IC50 (NCI-H1395): > 10000 nM
- IC50 (LXF-289 cell line): > 10000 nM
- IC50 (RKO): 8890 nM
- IC50 (RPMI-8226): > 10000 nM
- IC50 (SAS): > 10000 nM
- IC50 (SW1783): > 10000 nM
- IC50 (NCI-H1793): > 10000 nM
- IC50 (NCI-H1155): 5400 nM
- IC50 (KYSE-510): > 10000 nM
- IC50 (HT-29): 5980 nM
- IC50 (HT-144): 647 nM
- IC50 (CAKI-1): 8570 nM
- IC50 (SH-4): 463 nM
- IC50 (KMOE-2): 198 nM
- IC50 (SW 954): 8970 nM
- IC50 (TK-10): 6330 nM
- IC50 (EOL1): 41.5 nM
- IC50 (T84): > 10000 nM
- IC50 (HCC 2998): 5490 nM
- IC50 (Panc1005): 6280 nM
- IC50 (TE-1): > 10000 nM
- IC50 (HAL-01): > 10000 nM
- IC50 (NTERA-2-cl-D1): > 10000 nM
- IC50 (SW1088): 6920 nM
- IC50 (LB771-HNC): > 10000 nM
- IC50 (IGR-1): > 10000 nM
- IC50 (DMS-273): > 10000 nM
- IC50 (SF-539): > 10000 nM
- IC50 (MDA-MB-231): 4290 nM
- IC50 (KINGS-1): > 10000 nM
- IC50 (RCM-1): 1240 nM
- IC50 (SW780): 3140 nM
- IC50 (MZ1-PC): > 10000 nM
- IC50 (MZ7-mel): 263 nM
- IC50 (RPMI-7951): 4260 nM
- IC50 (NCI-H292): 1870 nM
- IC50 (EFM-19): > 10000 nM
- IC50 (KOSC-2): > 10000 nM
- IC50 (NCI-N87): > 10000 nM
- IC50 (TE-8): 5690 nM
- IC50 (BB65-RCC): 2410 nM
- IC50 (FTC-133): > 10000 nM
- IC50 (BB30-HNC): > 10000 nM
- IC50 (ACHN): 7030 nM
- IC50 (L-363): 2740 nM
- IC50 (SK-MEL-1): 1230 nM
- IC50 (SK-MEL-30): 7250 nM
- IC50 (8505C): 3900 nM
- IC50 (U-87 MG): > 10000 nM
- IC50 (ATN-1): > 10000 nM
- IC50 (DB): 2590 nM

Reference: ChEMBL document CHEMBL1201861, “Genomics of Drug Sensitity in Cancer screening data, Wellcome Trust Sanger Institute”
